# Measurements as given in PubChem BioAssay AID1259407 (Chemical Carcinogenesis Research Information System (CCRIS), 2018).
# “Also recorded” adds a separate entry of the source. Active and inactive are the calls of the source. How the calls were made is not given here.
# Test system: CCRIS mutagenicity, Ames/micronucleus/aberration tests
# Assay: CCRIS mutagenicity studies
smiles,measurement,setting,value
CC(=O)Nc1ccc2c(c1)Cc1ccccc1-2,mutagenic call,"End Point: IN VITRO MICRONUCLEUS, Test System: AHH-1 CELLS, Metabolic Activation: NONE",active; positive
same,mutagenic call,"End Point: IN VITRO MICRONUCLEUS, Test System: MCL-5 CELLS, Metabolic Activation: NONE",active; positive
same,mutagenic call,"End Point: IN VITRO MICRONUCLEUS, Test System: V79 CELLS, Metabolic Activation: RAT, LIVER, S-9, AROCLOR 1254",active; positive
same,mutagenic call,"End Point: In vivo micronucleus, Test System: Micronucleated hepatocytes, Species: Rat, Strain/Sex: F344/Male, Route: Oral",active; positive (p<0.01 at highest dose); also recorded: active; positive (p<0.05 at lower dose and p<0.01 at higher dose)
same,mutagenic call,"Test System: AMES SALMONELLA TYPHIMURIUM, Strain/Indicator: DJ400, Metabolic Activation: HUMAN, HEPATOMA CELLS, BENZO[A]ANTHRACENE, Method: PREINCUBATION",active; positive
same,mutagenic call,"Test System: AMES SALMONELLA TYPHIMURIUM, Strain/Indicator: DJ400, Metabolic Activation: HUMAN, HEPATOMA CELLS, Method: PREINCUBATION",active; positive
same,mutagenic call,"Test System: AMES SALMONELLA TYPHIMURIUM, Strain/Indicator: DJ400, Metabolic Activation: RAT, LIVER, S-9, AROCLOR 1254, Method: PREINCUBATION",active; positive
same,mutagenic call,"Test System: AMES SALMONELLA TYPHIMURIUM, Strain/Indicator: DJ400, Metabolic Activation: RAT, LIVER, S-9, Method: PREINCUBATION",active; positive
same,mutagenic call,"Test System: AMES SALMONELLA TYPHIMURIUM, Strain/Indicator: DJ460, Metabolic Activation: HUMAN, HEPATOMA CELLS, BENZO[A]ANTHRACENE, Method: PREINCUBATION",active; positive
same,mutagenic call,"Test System: AMES SALMONELLA TYPHIMURIUM, Strain/Indicator: DJ460, Metabolic Activation: HUMAN, HEPATOMA CELLS, Method: PREINCUBATION",active; positive
same,mutagenic call,"Test System: AMES SALMONELLA TYPHIMURIUM, Strain/Indicator: DJ460, Metabolic Activation: RAT, LIVER, S-9, AROCLOR 1254, Method: PREINCUBATION",active; positive
same,mutagenic call,"Test System: AMES SALMONELLA TYPHIMURIUM, Strain/Indicator: DJ460, Metabolic Activation: RAT, LIVER, S-9, Method: PREINCUBATION",active; positive
same,mutagenic call,"Test System: AMES SALMONELLA TYPHIMURIUM, Strain/Indicator: TA97, Metabolic Activation: NONE, Method: STANDARD PLATE",inactive; negative
same,mutagenic call,"Test System: AMES SALMONELLA TYPHIMURIUM, Strain/Indicator: TA97, Metabolic Activation: RAT, LIVER, S-9, AROCLOR 1254, Method: STANDARD PLATE",inactive; negative
same,mutagenic call,"Test System: AMES SALMONELLA TYPHIMURIUM, Strain/Indicator: TA98, Metabolic Activation: GUINEA PIG, LIVER, HEPATOCYTES",active; positive
same,mutagenic call,"Test System: AMES SALMONELLA TYPHIMURIUM, Strain/Indicator: TA98, Metabolic Activation: GUINEA PIG, LIVER, S-9, Method: STANDARD PLATE",active; positive
same,mutagenic call,"Test System: AMES SALMONELLA TYPHIMURIUM, Strain/Indicator: TA98, Metabolic Activation: HAMSTER, LIVER, HEPATOCYTES",active; positive
same,mutagenic call,"Test System: AMES SALMONELLA TYPHIMURIUM, Strain/Indicator: TA98, Metabolic Activation: HAMSTER, LIVER, S-9, Method: STANDARD PLATE",active; positive
same,mutagenic call,"Test System: AMES SALMONELLA TYPHIMURIUM, Strain/Indicator: TA98, Metabolic Activation: HUMAN, FETAL LIVER, S-9",inactive; negative
same,mutagenic call,"Test System: AMES SALMONELLA TYPHIMURIUM, Strain/Indicator: TA98, Metabolic Activation: HUMAN, HEPATOMA CELLS, BENZO[A]ANTHRACENE, Method: PREINCUBATION",active; positive
same,mutagenic call,"Test System: AMES SALMONELLA TYPHIMURIUM, Strain/Indicator: TA98, Metabolic Activation: HUMAN, HEPATOMA CELLS, Method: PREINCUBATION",active; positive
same,mutagenic call,"Test System: AMES SALMONELLA TYPHIMURIUM, Strain/Indicator: TA98, Metabolic Activation: HUMAN, RED BLOOD CELL, CYTOSOL, Method: PREINCUBATION",active; positive
same,mutagenic call,"Test System: AMES SALMONELLA TYPHIMURIUM, Strain/Indicator: TA98, Metabolic Activation: MOUSE, LIVER, HEPATOCYTES",inactive; negative
same,mutagenic call,"Test System: AMES SALMONELLA TYPHIMURIUM, Strain/Indicator: TA98, Metabolic Activation: MOUSE, LIVER, S-9, Method: STANDARD PLATE",active; positive
same,mutagenic call,"Test System: AMES SALMONELLA TYPHIMURIUM, Strain/Indicator: TA98, Metabolic Activation: NONE, Method: SPIRAL ASSAY",inactive; negative
same,mutagenic call,"Test System: AMES SALMONELLA TYPHIMURIUM, Strain/Indicator: TA98, Metabolic Activation: NONE, Method: STANDARD PLATE",inactive; negative
same,mutagenic call,"Test System: AMES SALMONELLA TYPHIMURIUM, Strain/Indicator: TA98, Metabolic Activation: RABBIT, LIVER, MICROSOMAL FRACTION, Method: STANDARD PLATE",active; positive
same,mutagenic call,"Test System: AMES SALMONELLA TYPHIMURIUM, Strain/Indicator: TA98, Metabolic Activation: RABBIT, LUNG, MICROSOMAL FRACTION, Method: STANDARD PLATE",active; positive
same,mutagenic call,"Test System: AMES SALMONELLA TYPHIMURIUM, Strain/Indicator: TA98, Metabolic Activation: RAT, BLADDER, S-9, PCB, Method: FLUCTUATION TEST",inactive; negative
same,mutagenic call,"Test System: AMES SALMONELLA TYPHIMURIUM, Strain/Indicator: TA98, Metabolic Activation: RAT, LIVER, HEPATOCYTES",inactive; negative
same,mutagenic call,"Test System: AMES SALMONELLA TYPHIMURIUM, Strain/Indicator: TA98, Metabolic Activation: RAT, LIVER, S-9, ACRYLAMIDE, Method: STANDARD PLATE",active; positive
same,mutagenic call,"Test System: AMES SALMONELLA TYPHIMURIUM, Strain/Indicator: TA98, Metabolic Activation: RAT, LIVER, S-9, AROCLOR 1254, Method: PREINCUBATION",active; positive
same,mutagenic call,"Test System: AMES SALMONELLA TYPHIMURIUM, Strain/Indicator: TA98, Metabolic Activation: RAT, LIVER, S-9, AROCLOR 1254, Method: SPIRAL ASSAY",active; positive
same,mutagenic call,"Test System: AMES SALMONELLA TYPHIMURIUM, Strain/Indicator: TA98, Metabolic Activation: RAT, LIVER, S-9, PHENOBARBITAL, Method: STANDARD PLATE",active; positive
same,mutagenic call,"Test System: AMES SALMONELLA TYPHIMURIUM, Strain/Indicator: TA98, Metabolic Activation: RAT, LIVER, S-9, Method: PREINCUBATION",active; positive
same,mutagenic call,"Test System: AMES SALMONELLA TYPHIMURIUM, Strain/Indicator: TA98, Metabolic Activation: RAT, LIVER, S-9, Method: STANDARD PLATE",active; positive
same,mutagenic call,"Test System: AMES SALMONELLA TYPHIMURIUM, Strain/Indicator: TA100, Metabolic Activation: NONE, Method: SPIRAL ASSAY",inactive; negative
same,mutagenic call,"Test System: AMES SALMONELLA TYPHIMURIUM, Strain/Indicator: TA100, Metabolic Activation: NONE, Method: STANDARD PLATE",inactive; negative
same,mutagenic call,"Test System: AMES SALMONELLA TYPHIMURIUM, Strain/Indicator: TA100, Metabolic Activation: RAT, BLADDER, S-9, PCB, Method: FLUCTUATION TEST",inactive; negative
same,mutagenic call,"Test System: AMES SALMONELLA TYPHIMURIUM, Strain/Indicator: TA100, Metabolic Activation: RAT, LIVER, S-9, ACRYLAMIDE, Method: STANDARD PLATE",active; positive
same,mutagenic call,"Test System: AMES SALMONELLA TYPHIMURIUM, Strain/Indicator: TA100, Metabolic Activation: RAT, LIVER, S-9, AROCLOR 1254, Method: SPIRAL ASSAY",inactive; negative
same,mutagenic call,"Test System: AMES SALMONELLA TYPHIMURIUM, Strain/Indicator: TA100, Metabolic Activation: RAT, LIVER, S-9, KC500 OR PHENOBARBITAL, Method: LIQUID SUSPENSION",active; positive
same,mutagenic call,"Test System: AMES SALMONELLA TYPHIMURIUM, Strain/Indicator: TA100, Metabolic Activation: RAT, LIVER, S-9, PHENOBARBITAL, Method: STANDARD PLATE",active; positive
same,mutagenic call,"Test System: AMES SALMONELLA TYPHIMURIUM, Strain/Indicator: TA1535, Metabolic Activation: NONE, Method: SPIRAL ASSAY",inactive; negative
same,mutagenic call,"Test System: AMES SALMONELLA TYPHIMURIUM, Strain/Indicator: TA1535, Metabolic Activation: NONE, Method: STANDARD PLATE",inactive; negative
same,mutagenic call,"Test System: AMES SALMONELLA TYPHIMURIUM, Strain/Indicator: TA1535, Metabolic Activation: RAT, LIVER, S-9, AROCLOR 1254, Method: SPIRAL ASSAY",inactive; negative
same,mutagenic call,"Test System: AMES SALMONELLA TYPHIMURIUM, Strain/Indicator: TA1535, Metabolic Activation: RAT, LIVER, S-9, AROCLOR 1254, Method: STANDARD PLATE",inactive; negative
same,mutagenic call,"Test System: AMES SALMONELLA TYPHIMURIUM, Strain/Indicator: TA1537, Metabolic Activation: NONE, Method: SPIRAL ASSAY",inactive; negative
